Each structure is given as a SMILES string.

One data set has as its system hepatocytes. The note with it: cited from earlier work.
Data set [1] relates to breast cancer and liver cancer. As to conditions: animal studies; cited from earlier work.

`CCNC(=O)CC[C@H](N)C(=O)O` [L-theanine, gamma-glutamylethylamide]: the “Protection of hepatocytes against ethanol-induced cell cytotoxicity” value with hepatocytes is on record as “significantly protect hepatocytes”. For the same compound, the Solubility in ethanol result in “Solubility in ethanol” is given as “ethanol soluble”. Regarding `Oc1ccc(C=Cc2cc(O)cc(O)c2)cc1` [Resveratrol, resveratrol], the Solubility in ethanol result in the data set “Solubility in ethanol” is listed as “ethanol soluble”.

Take `COc1cc(/C=C/C(=O)O)ccc1O` [Ferulic acid, ferulic acid]: the Antitumor activity entry in data set [1] is given as “direct antitumor activity”.

Values taken from patent US20150284667A1, “ALCOHOLIC BEVERAGES WITH HEALTH-BENEFITTING AND PROTECTIVE CHARACTERISTICS” (Cerebral Spirits Corporation, priority 2014, published 2015).
